The results in this text go back to a melting point compilation (Tetko et al.; mined from patent text by program, amines drawn as free bases though some values may be those of a salt).

Where only a bound is given, the exact number is not on record here.

As usually defined, the melting point is the temperature, or range, at which the solid turns liquid. In the case of `COc1cc(-n2cc(F)c(F)c2)ccc1-n1cc(OC)c(=O)c(-c2ccnn2-c2ccccc2)n1`, the melting point was 206 to 207 °C.
`C[C@@H](O[C@H]1CCCN(Cc2n[nH]c(=O)[nH]2)[C@H]1c1ccccc1)c1cccc(C(F)(F)F)c1` returned a melting point of 143 to 145 °C.
Molecule `CN(C)c1c(-c2ccccc2)sc2ccccc12` showed a melting point of 84 to 86 °C.
The figure for `CNC(=O)N/N=C1/C(=O)N(CCN(C(C)C)C(C)C)c2ccccc21` is 175 to 177 °C; for `CCc1c(-c2ccccc2)ncc2c(N3CCCCC3)nnc(N3CCCCC3)c12` it is 64 to 65 °C.
The figure for `COc1cc2[nH]c(=O)c([N+](=O)[O-])c(C(F)(F)F)c2cc1OC` is 270 °C; for `CN1CCC(C2(O)c3ccccc3Sc3cc(F)ccc32)CC1` (stereo not given) it is 120 to 130 °C; for `S=c1cc(Oc2c(Cl)cccc2Cl)c2cc(Cl)ccc2s1` it is 208 to 210 °C.
`COc1cccc2c(C)c3n(c(=O)c12)CCCS3(=O)=O` displayed a melting point of 198 to 199 °C.
Regarding `Nc1ccc(C=C2c3ccccc3C=Cc3ccccc32)cc1`, the melting point was 119 to 120 °C.
To `CC(C)C1NC(=O)[C@H](CS)NC1=O` (stereo not given in full) belongs over 275 °C.
The figure for `OC1(c2ccc(-c3ccccn3)cc2)CN2CCC1CC2` (stereo not given) is 237 to 238 °C; for `O=S(c1cc(Cl)c(-n2cccn2)c(Cl)c1)C(F)(F)F` (stereo not given) it is 86 to 91 °C; for `CCOC(=O)C(NC(=O)c1ncn(Cc2ccccc2)c1[N+](=O)[O-])(OC)C(=O)OCC` it is 126 to 127 °C.
Turning to `Cc1[nH]c(=O)ccc1C(=O)c1ccco1`, the melting point fell in the range of 258 to 260 °C.
The molecule `CCC(=O)N(C)C1CCN(Cc2cc3cccnc3n(-c3ccccc3F)c2=O)CC1` showed a melting point of 218 to 220 °C.
To `CCC(Oc1c(Br)cccc1Br)C(=O)OC1CC(O)C=C2C=CC(C)C(CCC3CC(O)CC(=O)O3)C21` (mixture of isomers) belongs 114 to 116 °C.
The figure for `Fc1ccc(-c2[nH]cc(-c3c(F)c(F)nc(F)c3F)c2-c2ccncc2)cc1` is over 300 °C; for `Cc1ccc(C(=O)NCCc2ccccc2Cl)cc1` it is 106 to 108 °C; for `COC(=O)Nc1nc(C)c(-c2nc3ccccc3c(=O)n2-c2cccc(C)c2)s1` it is 232 to 233 °C.
To `COc1ccc2c(c1)C1(CO2)C(=O)N(C)c2ccccc21` (stereo not given) belongs 159 to 161 °C; to `Cc1cc(-c2ccc(C(F)(F)F)cc2)cn2c(-c3nc(-c4ccnc(N)c4)no3)cnc12`, 264 °C.
The molecule `Nc1cccc(-c2ccc(CCN3CCN(C(=O)Cc4ccccc4)CC3)cc2)n1` had a melting point of 135 to 137 °C.
To `O=c1oc(=O)c2ccsc2c2sccc12` belongs 260 to 263 °C; to `CCOC(=O)c1c[nH]c2c1-c1ncccc1CCC2`, 96 to 98 °C.
The figure for `[N-]=[N+]=CC(=O)CC1CCCCC1` is 58 to 62 °C; for `COC(=O)C1=C(C)N=C(C)C(C(=O)OC)C(c2ccccc2)C1` (stereo not given) it is 135 to 137 °C; for `CN(c1cccc2cc(C3=NCC(C)(C(N)=O)S3)[nH]c12)S(=O)(=O)c1cccs1` (stereo not given) it is 248 to 249 °C.
`CN1C(=O)N(Cc2cc(C(F)(F)F)cc(C(F)(F)F)c2)C(=O)C1=Cc1c[nH]c2ccccc12` registered a melting point of 145 to 147 °C.
To `CCCCCc1ocnc1C(=O)O` belongs 84 to 85 °C; to `C=CCc1cc(C#CC2(O)CN3CCC2CC3)ccc1OCC(=O)OCC` (stereo not given), 95.9 °C; to `C=C1CC2C(CCC3(C)C(OC(C)=O)CCC23)C2(C)CCC(=O)C=C12` (stereo not given), 138 to 140 °C.
Molecule `CCOc1ccccc1OCCNC(=O)CCC(=O)c1ccc(F)cc1` displayed a melting point of 98 to 100 °C.
The figure for `Cc1cc2oc(=O)c3c(c2cc1C)CCNC3` is 173 to 175 °C; for `CS(=O)(=O)Nc1ccc([N+](=O)[O-])cc1N` it is 201 to 204 °C; for `CCC(=O)OC1CC2(CCN(CCCC(=O)c3ccc(F)cc3)C2)c2ccc(C)cc21` (stereo not given) it is 153 to 155 °C.
For the molecule `CC(=O)c1ccc2c(c1)Sc1cc(C(C)=O)c(Cl)cc1N2C`, the melting point came to 185 °C.
To `O=C(O)CCCCc1cn(-c2cccnc2)c2ccccc12` belongs 122 to 124 °C.
The molecule `COCCNC(=O)c1cccc(-c2cccc3cc(Cc4ccc(F)c(OC)c4)sc23)c1` registered a melting point of 70 to 71 °C.
In turn, `O=C(NCC12CC3CC(CC(C3)C1)C2)c1cc(I)ccc1Cl` came in with a melting point of 161 to 162 °C.
The figure for `Cc1c2c(nn1C)N(c1ccc(Cl)cc1Cl)CCC2` is 66.6 to 76.6 °C; for `CC(C)OC(=O)c1cc(-n2c(=O)[nH]c(C(F)(F)F)c(F)c2=O)c(F)cc1Cl` it is 102 to 106 °C; for `CCOCc1nc2c(N)nc3cc(Cl)ccc3c2n1CC(C)(C)O` it is 238 to 240 °C.
To `Cc1nc(N)nc(N)c1N1CCN(c2ccc(S(=O)(=O)N(C)C)cc2)CC1` belongs 301 to 304 °C; to `Cc1nc2ccccn2c1Cc1ccc(C(=O)O)cc1`, 217 °C; to `Cc1ccc(Cn2[nH]c(N)cc2=O)cc1Cl`, 130 to 131 °C.
Molecule `CC(C)c1cc(C(=O)Nc2ccc(C(=O)O)cc2)sc1C(C)C` showed a melting point of 219 to 221 °C.
The figure for `CCCCCCCCCCCCCCCCCCOC(=O)c1ccc(N)cc1` is 60 to 70 °C; for `CCCN(C)S(=O)(=O)c1cccc(-c2cc(-c3nc(-c4ccc(C(F)(F)F)cc4)cc(C(F)(F)F)n3)ccn2)c1` it is 144 °C; for `Nc1ncnc2c1ncn2[C@@H]1CO[C@H](CO)[C@@H](O)C1` it is 237 to 239 °C.
The figure for `CNC(=O)c1ccc(-c2ccc3nnn(C(C)(C)c4ccc5ncccc5c4)c3n2)cc1F` is 171 to 173 °C.
The figure for `Cc1cc(C)n(Cc2ccc(OCc3nc(-c4ccccc4)oc3C)cc2)n1` is 86 to 87 °C; for `c1cncc(-c2cccn3cnnc23)c1` it is 186 to 189 °C.
The molecule `N#Cc1ccc(OCCCCOc2cccc(-c3cc4ccc(C#N)cc4o3)c2)cc1` gave a melting point of 129 to 130 °C.
To `O=C(CC(F)=C(F)F)Nc1ccc(S(=O)(=O)O)cc1` belongs over 300 °C; to `CC1CCCC(C)N1CCNC(=O)CN1CC(c2ccccc2)CC1=O` (stereo not given), 115 to 116 °C; to `COc1ccc(OC)c(COc2cc(Cl)sn2)c1`, 52 to 55 °C.
To `Oc1ccc(Oc2cnc3ccccc3c2)cc1` belongs 250 °C; to `CS(=O)(=O)c1ccc(-c2sc(COc3cccc(Cl)c3)nc2-c2ccccc2F)cc1`, 152 to 153 °C.
In the case of `O=C1C(O)OC=CN1Cc1ccccc1` (stereo not given), the melting point came out at 134 °C.
To `Nc1ccc2oc(CCC(F)(F)F)cc2c1` belongs 74 °C.
To `O=C(C=Cc1cccnc1)NCCCCC1CCN(C(=O)c2cccc3c2-c2ccccc2C3=O)CC1` belongs 80 to 82 °C.
The molecule `C=C(C)COc1ccc(Br)cc1CN(CC)c1ccc(C(=O)NS(=O)(=O)c2scnc2C)nn1` showed a melting point of 128 °C.
`Cc1nn(C)c(O)c1C(=O)c1ccc(Cl)c(C)c1Cl` came in with a melting point of 149 to 150 °C.
In the case of `Cc1ccc(C(=O)Cn2c3c(sc2=O)CCCC3)cc1`, the melting point was in the range of 108 to 110 °C.
Molecule `CCCCNC(=O)c1ccc(S(=O)(=O)CCCn2c(CCC)nc3c(N)nc(C)c(C)c32)cc1` registered a melting point of 147 to 149 °C.
The molecule `CCCCc1c(/C=C/C(=O)O)ccc2cc(OC)ccc12` yielded a melting point of 163 to 164 °C.
The figure for `CS(=O)(=O)c1ccc(Br)c([N+](=O)[O-])c1` is 126 °C; for `Cc1cccc(C2=NN(C(=O)c3cccnc3)CC2)c1` it is 99 to 100 °C.
The figure for `Cc1ccc(NC(=O)N(Cc2ccccc2)Cc2ccccc2)c(C)c1` is 124 to 126 °C; for `CCCCCCCCCCNC(=O)CCCOCCO` it is 48 °C.
The figure for `CC(C)(C)CNS(=O)(=O)c1cccc([N+](=O)[O-])c1` is 99 °C; for `CC(=O)OCCCc1cc(C=C2SC(=S)N(C)C2=O)cc(CCCOC(C)=O)c1O` it is 151 to 155 °C; for `CC(C)C(C(=O)O)n1sc2ccccc2c1=O` (stereo not given) it is 166 to 168 °C.
`CCOC(=O)C(C)(C)c1ccc(-n2c(-c3cc(-c4cnc5ccccc5c4)ccn3)cn(C)c2=O)cc1` yielded a melting point of 158 °C.
The figure for `Cc1ccccc1CN1CCN(C(=O)c2ccc(N(CCOC(C)C)C(=O)CCl)cc2)CC1` is 142 to 143 °C; for `CN1Cc2c(-c3noc(CCl)n3)ncn2-c2ccccc2C1=O` it is 208 to 209 °C.
`Cc1nc(Nc2ccccc2)sc1-c1ccncc1` gave a melting point of 168 to 170 °C.
To `NN1CCC(Cc2ccc(Cl)cc2)CC1` belongs 49 to 51 °C.
To `CCOC(=O)c1cn2c3c(c(-c4ccccc4)ccc3c1=O)OCC2C` (stereo not given) belongs 246 °C.
To `O=c1[nH]c2cc(Cl)ccc2c(O)c1-n1ccccc1=O` belongs 355 °C.
In turn, `CS(=O)(=O)Nc1cc2c(cc1Oc1ccccc1)C(=O)C(Sc1ccccc1)C2` (stereo not given) came in with a melting point of 86 °C.
As for `O=C(Nc1nc(-c2ccco2)c(C(=O)c2ccccn2)s1)c1ccncc1`, the melting point fell in the range of 218 to 227 °C.
To `CSc1ccc([N+](=O)[O-])cc1C(=O)OC(C)(C)C` belongs 112 to 113 °C.
To `CC(=O)Oc1ccc(Cc2ccc(C(=O)O)nc2)cc1` belongs 116 to 119 °C.
The figure for `CCOC(=O)C(Cc1ccc(OCCNC(=O)c2ccc(-c3ccccc3)cc2)cc1)Oc1ccccc1` (stereo not given) is 103 to 104 °C.
As for `C1CCC(N2CCCC2)C2NCCCC2C1` (stereo not given), the melting point was 30 to 35 °C.
To `Cc1ncncc1NC(=O)c1ccc(-n2nc(C(F)(F)F)cc2C2CC2)c(F)c1` belongs 150 to 152 °C; to `CC(C)c1cc2c(cc1Oc1ccc(C(=O)O)cc1)C(C)(C)CCC2(C)C`, 205 to 206 °C; to `CN1CC(CCN2CCN(c3ccc([N+](=O)[O-])cc3)CC2)OC1=O` (stereo not given), 155 to 156 °C.
